# According to article PMC9161086, “Water-Soluble Trichogin GA IV-Derived Peptaibols Protect Tomato Plants From Botrytis cinerea Infection With Limited Impact on Plant Defenses” (Frontiers in Plant Science, 2022):
# Experiment: Hydrophilicity evaluated from HPLC retention times
# Type: physicochemical
# Conditions: comparison to native Trichogin GA IV, C18 column Phenomenex Jupiter 5 μm, 300 Å, 250 × 4.5 mm, gradient 60%–100% B in 30 min, A H2O/CH3CN 9:1 0.05% TFA, B CH3CN/H2O 9:1 0.05% TFA
substance,measurement,value
"1-octanoyl-Aib-Gly-Leu-Aib-Gly-Gly-Leu-Aib-Gly-Ile-Lol [Trichogin GA IV, 11-residue lipopeptaibol naturally produced by Trichoderma longibrachiatum]",Hydrophilicity,Native
